Measurements: patent US10947275B2, “Caged cell penetrating peptide-polymer conjugates for diagnostic and therapeutic applications” (Ben-Gurion University of the Negev Research and Development …, priority 2010, dated 2021)

How the values were obtained:
[1] = Uncaging kinetics of cCPP under UV illumination, HPLC; assay type: physicochemical; conditions: cCPP 200 μM, 8 minutes UV illumination (700 μW/cm2; λ=365 nm), HPLC-UV 230 nm
Procedure: FIG. 2 depicts the uncaging kinetics of cCPP as a function of light illumination time (365 nm) as determined with HPLC.
Uncaging kinetics of cCPP. cCPP (200 μM) was dissolved in 100 μL MOPS buffer at pH=7.4 and exposed to UV light illumination (UV lamp 6 W; =365 nm). Aliquots (30 μL) were removed at various time points, immediately kept frozen, in dark until analyzed by HPLC. The molar fraction of cCPP was calculated from its HPLC peak area.
CPP with 3 Mtt-protected Lys, Ac-KRRMK^MttWK^MttK^Mtt (KRRMKWKXK SEQ ID NO: 6) was synthesized on a solid phase via Fmoc chemistry on a MBHA Resin. CPP was then modified to include 3 photolabile protecting groups on Lys side chains to give the caged CPP (cCPP), Ac-KRRMK^NvocWK^NvocK^Nvoc. The identity and purity (>90%) were determined by HPLC and MALDI-TOF mass spectrometer. In order to study the uncaging kinetics of the peptide, a solution of cCPP (200 μM) was exposed to UV light illumination (700 μW/cm2; λ=365 nm). Aliquots were removed at various time points, and then evaluated by high performance liquid chromatography with UV detection (HPLC-UV) at 230 nm. The molar fraction of cCPP was calculated from its HPLC peak (FIG. 2). 8 minutes of illumination were sufficient to attain >80% of uncaged CPP, and thus further experiments were therefore undertaken with 8-10 min of light illumination. […]

[2] = tested on: B16 cells; assay: Caging of CPP activity via reversible electrostatic interactions with polyanions, flow cytometry; assay type: cell-based; conditions: for mean fluorescence intensity of HPMA-CPP-FITC after pre-treatment with polyanion (masking of CPP activity): polyanion mixed with HPMA-CPP-FITC for 10 min, versus conjugate alone
Procedure: FIG. 7A-FIG. 7D depict FACS analysis results of B-16 cells incubated with HPMA-CPP-FITC conjugate mixed with different polyanions (Hep, FI, PGA, HA, P-GG, LMWH, Amb) for 10 min, and then added to B16-cell monolayers. Control cells were treated with HPMA-CPP-FITC conjugate only. FIG. 7A depicts results of B-16 cells incubated with HPMA-CPP-FITC conjugate mixed with Hep or FI. FIG. 7B depicts results of B-16 cells incubated with HPMA-CPP-FITC conjugate mixed with PGA or HA. FIG. 7C depicts results of B-16 cells incubated with HPMA-CPP-FITC conjugate mixed with P-GG or LMWH. FIG. 7D depicts results of B-16 cells incubated with HPMA-CPP-FITC conjugate mixed with Amb.
FIG. 8A-FIG. 8D depict FACS analysis results of stability testing of HPMA-CPP-FITC polyanion complexes incubated with B-16 cells at different time points. FIG. 8A depicts results of B-16 cells incubated with a complex of HPMA-CPP-FITC and the polyanion Hep. FIG. 8B depicts results of B-16 cells incubated with a complex of HPMA-CPP-FITC and the polyanion FI. FIG. 8C depicts results of B-16 cells incubated with a complex of HPMA-CPP-FITC and the polyanion LMWH. FIG. 8D depicts results of B-16 cells incubated with a complex of HPMA-CPP-FITC and the polyanion Amb.
FIG. 9A-FIG. 9D depict the reversible masking of CPP activity by polyanion complexes via the addition of protamine. FIG. 9A depicts the reversible masking of CCP activity by polyanion complexes comprising the polyanion fucoidan via the addition or protamine. FIG. 9B depicts the reversible masking of CCP activity by polyanion complexes comprising the polyanion LMWH via the addition or protamine. FIG. 9C depicts the reversible masking of CCP activity by polyanion complexes comprising the polyanion Heparin via the addition or protamine. FIG. 9D depicts the reversible masking of CCP activity by polyanion complexes comprising the polyanion P-GG-OH via the addition or protamine.
FIG. 10 depicts FACS analysis results of polyanion release from HPMA-CPP-FITC complexes by protamine was at the following order: LMWH>P-GG100%>Fl>Hep.
HPMA-CPP-FITC conjugate was mixed with various polyanions such as Polyglutamic acid (PGA); Fucoidan (FI); Heparin sulfate (Hep) Hyaluronic acid (HA); Low molecular weight heparin (LMWH), Amberlite IR120 (Amb) or Polyglycylglycine (P-GG) at a weight ratio of 3:1 or 5:1 in PBS. The solutions were left for 10 min at room temperature to allow HPMA-CPP-FITC-polyanion complex formation, and then added to B16 cell monolayers in growth medium The reversibility of masking the CPP activity in complexes was assessed following the addition of the counter polycation, protamine to the incubation medium. B16 cells were treated with HPMA-CPP-FITC-polyanion complexes for 10 min, and then the counter polycation protamine (4.7 KDa, 10-50 μg/ml, at the same weight ratio of HPMA conjugate) was added to the cells. Control cells were treated with HPMA-CPP-FITC-polyanion complexes without protamin. After 1 h, the cells were washed with PBS, harvested with trypsin and the cell associated fluorescence was analyzed by flow cytometry.
HPMA-CPP-FITC conjugate was mixed with different polyanions (Hep, FI, PGA, HA, P-GG, LMWH, Amb) and then added to B16-cell monolayers and compared to control cells treated with HPMA-CPP-FITC conjugate alone (FIGS. 7A-7D).
The masking of CPP activity by the polyanion complexes was readily reversible following the addition of the polycation, protamine (4.7 KD) (FIGS. 9A-9D). Greater intensity is readily seen in protamine treated (black lines) versus untreated (gray lines) samples.
The efficiency of polyanion release from HPMA-CPP-FITC complexes by protamine was at the following order: LMWH>P-GG100%>FI>Hep (corresponding to outermost versus innermost graphs) (FIG. 10).

[3] = tested on: PC-3 cells; assay: Light-mediated cytotoxicity, MTT assay, illumination time and dose dependence; assay type: cell-based; conditions: 80 μM dose (or equivalent dose of M-(cCPP)-KLAK), 15 min of light illumination
Procedure: FIG. 6A depicts illumination time-dependence and dose-dependence of the viability of PC-3 cells incubated with 80 μM (solid blue), 40 μM (dashed blue), 20 μM (dots blue) M-(cCPP)-KLAK (KLAK equiv), 80 μM KLAK (solid green), and 80 μM M-(cCPP) (solid red), as determined by MIT assay. The results presented are the average of 3 independent experiments, in duplicates. Untreated control cells corresponded to 100% viability. FIG. 6B depicts light-induced cell cytotoxicity of polymer-KLAK conjugates and free KLAK against various cell-types including A431 cells (top left graph), PC-3 cells (top right graph), 3LL cells (bottom left graph) and SW480 cells (bottom right graph). Cells were incubated with 60 μM KLAK equivalent M-(cCPP)-KLAK (dark column), M-(cCPP) (gray column) or 60 μM KLAK (white column) and were illuminated immediately with UV light (365 nm) for 8 minutes followed by 2 hours incubation at 37° C. Cell viability was analyzed by MIT assay.
The cytotoxicity of M-cCPP-KLAK, M-cCPP and o(KIAKLAK) (SEQ ID NO: 5)2, was assessed using a modified 3-(4,5-dimethylthiazol-2-yl)-2,5-diphenyltetrazolinium bromide (MTT). All concentrations of KLAK-HPMA copolymers used for these experiments are expressed in KLAK equivalents. All solutions were sterilized by filtering through a 0.2-μm membrane filter. […] The absorbance of each sample was measured at 570 nm. […]

| uncaged CPP attained [1] | Substance | mean fluorescence intensity of HPMA-CPP-FITC after pre-treatment with polyanion (masking of CPP activity) [2] | order of efficiency of polyanion release from HPMA-CPP-FITC complexes by protamine [2] | toxicity towards PC-3 cells [3] |
| --- | --- | --- | --- | --- |
| > 80% | Ac-KRRMK^NvocWK^NvocK^Nvoc [cCPP] | – | – | – |
| – | Fucoidan [FI] | significantly reduced | LMWH>P-GG100%>FI>Hep | – |
| – | Heparin sulfate | significantly reduced | LMWH>P-GG100%>FI>Hep | – |
| – | Levulinic acid-D(KLAKLAK)2 | – | – | no significant toxicity |
| – | Low molecular weight heparin [LMWH] | significantly reduced | LMWH>P-GG100%>FI>Hep | – |
